Here are results for 25 compounds from ChEMBL document CHEMBL1122200, “Novel opiates and antagonists. 5. 7-Carbethoxy-N-(cycloalkylmethyl)-3-hydroxymorphinan-6-ones and -isomorphinan-6-ones” (1982).

The test system of one experiment is Mus musculus. Briefly: Analgesic activity by mouse writhing test after subcutaneous injection. Format: functional.
A further experiment deals with Rattus norvegicus. Kind of experiment: Narcotic antagonist activity was measured by rat tail flick procedure after the drug was injected intraperitoneally. Format: functional.
The mark [1] stands for this setting: Mus musculus, sc, read-out: ED50.

The term ED50 denotes the midpoint of the dose-response relation. On to `CCOC(=O)[C@@H]1CC2C3Cc4ccc(O)cc4C2(CCN3C)CC1=O` (some centres not stated), for which the ED50 in the experiment on Mus musculus (setting [1]) amounted to 0.72 mg/kg.

For the compound `COc1ccc2c(c1)C13CCN(CC4CCC4)C(C2)C1CCC(=O)C3` (stereo in doubt; 5Cd), the ED50 in the experiment with Mus musculus was 0.22 mg/kg. Further, the AD50 in the experiment with Rattus norvegicus is greater than 10 mg/kg.

For `CN1CC[C@]23c4c5ccc(O)c4O[C@H]2[C@@H](O)C=C[C@H]3[C@H]1C5.CN1CC[C@]23c4c5ccc(O)c4O[C@H]2[C@@H](O)C=C[C@H]3[C@H]1C5.O=S(=O)(O)O`, the ED50 in the experiment on Mus musculus (setting [1]) was determined as 0.8 mg/kg.

With `O=C1CCC2C3Cc4ccc(O)cc4C2(CCN3CC2CCC2)C1` (cis isomer), in the experiment on Mus musculus (setting [1]), the ED50 came out at 0.017 mg/kg. This compound registered an AD50 with Rattus norvegicus greater than 10 mg/kg.

Regarding `CN1CCC23CC(=O)CC[C@H]2C1Cc1ccc(O)cc13` (some centres not stated), the ED50 with Mus musculus (setting [1]) was determined as 0.15 mg/kg.

For `CN1CCC23CC(=O)CC[C@@H]2C1Cc1ccc(O)cc13` (some centres not stated), the ED50 with Mus musculus (setting [1]) came to 0.23 mg/kg.

`COc1ccc2c(c1)C13CCN(CC4CC4)C(C2)C1CCC(=O)C3` (trans isomer) had an ED50 in the experiment on Mus musculus greater than 10 mg/kg. In addition, the AD50 with Rattus norvegicus was 1.3 mg/kg.

`O=C1CCC2C3Cc4ccc(O)cc4C2(CCN3CC2CC2)C1` (trans isomer) displayed an ED50 with Mus musculus greater than 10 mg/kg. This compound showed an AD50 with Rattus norvegicus of 0.78 mg/kg.

Turning to `COc1ccc2c(c1)C13CCN(CC4CC4)C(C2)C1CCC(=O)C3` (stereo in doubt; 5Cc), the ED50 in the experiment on Mus musculus is 0.24 mg/kg. Moreover, the AD50 in the experiment on Rattus norvegicus was greater than 3 mg/kg.

Consider `CCOC(=O)[C@H]1CC2C3Cc4ccc(OC)cc4C2(CCN3C)CC1=O` (some centres not stated), for which, in the experiment on Mus musculus (setting [1]), the ED50 is greater than 10 mg/kg.

In the case of `COc1ccc2c(c1)C13CCN(CC4CCC4)C(C2)C1CCC(=O)C3` (trans isomer), the ED50 in the experiment with Mus musculus is 6.9 mg/kg.

In the case of `CCOC(=O)[C@H]1CC2C3Cc4ccc(O)cc4C2(CCN3C)CC1=O` (some centres not stated), the ED50 with Mus musculus (setting [1]) turned out to be 0.6 mg/kg.

On to `CCOC(=O)[C@@H]1CC2C3Cc4ccc(OC)cc4C2(CCN3CC2CC2)CC1=O` (some centres not stated), for which, in the experiment on Mus musculus (setting [1]), the ED50 is greater than 10 mg/kg. This compound also yielded an AD50 in the experiment on Rattus norvegicus greater than 3 mg/kg.

`O=C1CCC2C3Cc4ccc(O)cc4C2(CCN3CC2CC2)C1` (stereo in doubt; 9Ca): in the experiment on Mus musculus, the ED50 was determined as 1.02 mg/kg. For the same compound, the AD50 with Rattus norvegicus amounted to 2.3 mg/kg.

Take `CCOC(=O)[C@H]1CC2C3Cc4ccc(OC)cc4C2(CCN3CC2CC2)CC1=O` (some centres not stated): the ED50 in the experiment on Mus musculus (setting [1]) is greater than 10 mg/kg. The AD50 with Rattus norvegicus was greater than 10 mg/kg.

For the compound `COc1ccc2c(c1)C13CCN(C)C(C2)[C@@H]1CCC(=O)C3` (some centres not stated), in the experiment on Mus musculus (setting [1]), the ED50 stood at 0.49 mg/kg.

In the case of `CC(C)=CCN1CC[C@]2(C)c3cc(O)ccc3C[C@H]1[C@H]2C` [(+)-PENTAZOCINE], the ED50 with Mus musculus (setting [1]) was 3.7 mg/kg. The compound further registered an AD50 in the experiment with Rattus norvegicus of 10.4 mg/kg.

For `COc1ccc2c(c1)C13CCN(C)C(C2)[C@H]1CCC(=O)C3` (some centres not stated), the ED50 in the experiment on Mus musculus (setting [1]) worked out at 1.58 mg/kg.

With `CCOC(=O)[C@@H]1CC2C3Cc4ccc(OC)cc4C2(CCN3C)CC1=O` (some centres not stated), the ED50 in the experiment with Mus musculus (setting [1]) worked out at 4.6 mg/kg.

In the case of `CC(C)(O)[C@H]1CC2C3Cc4ccc(O)cc4C2(CCN3CC2CC2)C[C@H]1O` (some centres not stated), the median effective dose (ED50) with Mus musculus (setting [1]) was greater than 10 mg/kg. Also, the AD50 in the experiment with Rattus norvegicus was greater than 10 mg/kg.

With `CCOC(=O)[C@@H]1CC2C3Cc4ccc(OC)cc4C2(CCN3CC2CCC2)CC1=O` (some centres not stated), the median effective dose (ED50) in the experiment with Mus musculus (setting [1]) was greater than 10 mg/kg. In addition, the AD50 in the experiment with Rattus norvegicus was greater than 3 mg/kg.

On to `CC(C)(O)[C@@H]1CC2C3Cc4ccc(O)cc4C2(CCN3CC2CC2)C[C@@H]1O` (some centres not stated), for which, in the experiment with Mus musculus (setting [1]), the ED50 turned out to be 6.9 mg/kg. Also, the AD50 with Rattus norvegicus is greater than 10 mg/kg.

Regarding `CCOC(=O)[C@@H]1CC2C3Cc4ccc(O)cc4C2(CCN3CC2CC2)CC1=O` (some centres not stated), the ED50 in the experiment on Mus musculus (setting [1]) was 4.9 mg/kg.

`CCOC(=O)[C@@H]1CC2C3Cc4ccc(O)cc4C2(CCN3CC2CCC2)CC1=O` (some centres not stated) registered an AD50 in the experiment on Rattus norvegicus greater than 10 mg/kg.

Consider `C=CCN1CC[C@]23c4c5ccc(O)c4O[C@H]2[C@@H](O)C=C[C@H]3[C@H]1C5` [NALORPHINE], for which the AD50 in the experiment on Rattus norvegicus is 0.86 mg/kg.
